Data set [1] concerns Mycobacterium tuberculosis. Description: Antitubercular activity against Mycobacterium tuberculosis H37Rv ATCC 27294 at 6.25 ug/ml after 5 days by microplate Alamar Blue assay. Format: functional. The following applies: H37Rv ATCC 27294, 120 h. A general note: Alamar Blue is a resazurin reagent that responds to reducing activity.
Data set [2] relates to Mycobacterium tuberculosis. Description: Antitubercular activity against Mycobacterium tuberculosis H37Rv ATCC 27294 after 5 days by microplate Alamar Blue assay. Format: functional. The note with it: H37Rv ATCC 27294, 120 h.
Data set [3] is described as follows: Cytotoxicity against African green monkey Vero cells assessed as cell survival at 10 times MIC after 72 hrs by MTT assay. The following applies: chlorocebus sabaeus, read-out: Survival. The format is cell-based. (In general: Formazan colour is commonly taken as a measure of viable cells.)
The next data set is filed under the species Bos taurus. The experiment in a line: Induction of DNA cleavage in calf thymus DNA at 10 ug after 2 hrs by agarose gel electrophoresis method.

In brackets after ≈: the same amount, converted by molar mass. Activity calls are given as the source filed them. The rule behind the calls is not given here.

As for `O=c1oc2ccc3ccccc3c2cc1-c1cc(-c2ccccc2[N+](=O)[O-])nc(Cc2ccc(F)cc2)n1`, testing at 6.25 µg/mL in data set [1] gave an inhibition of 90%. Also, the MIC (usually the lowest concentration that inhibits growth of the organism) in data set [2] came out at 6.25 µg/mL (≈ 12.4 µM). The viability at 72 h, 10 times MIC in data set [3] is 17%.

As to `O=c1oc2ccc3ccccc3c2cc1-c1cc(-c2ccccc2Br)nc(Cc2ccc(F)cc2)n1`, the inhibition (usually the change of the read-out against control, counted positive when it falls) at 6.25 µg/mL in data set [1] was determined as 77%.

The compound `COc1ccccc1-c1cc(-c2cc3c(ccc4ccccc43)oc2=O)nc(Cc2ccc(F)cc2)n1` displayed an inhibition at 6.25 µg/mL in data set [1] of 98%. The compound also came in with an MIC in data set [2] of 0.78 µg/mL (≈ 1.6 µM). The viability at 72 h, 10 times MIC in data set [3] came out at 91%.

For `NNC(=O)c1ccncc1` [ISONIAZID], the inhibition at 6.25 µg/mL in data set [1] turned out to be 100%. Besides, 0.02 µg/mL (≈ 0.146 µM) was the least that counted as inhibitory in data set [2] (MIC). Further, the viability at 72 h, 10 times MIC in data set [3] came out at 100%.

With `O=c1oc2ccc3ccccc3c2cc1-c1cc(-c2ccc(Cl)cc2)nc(Cc2ccc(F)cc2)n1`, the inhibition at 6.25 µg/mL in data set [1] stood at 96%. In data set [2], this compound came in with an MIC of 1.21 µg/mL (≈ 2.45 µM). The viability at 72 h, 10 times MIC in data set [3] turned out to be 79%.

For the compound `O=c1oc2ccc3ccccc3c2cc1-c1cc(-c2cccc(Cl)c2)nc(Cc2ccc(F)cc2)n1`, at 6.25 µg/mL the inhibition in data set [1] was 93%. In data set [2], this compound showed a minimum inhibitory concentration (MIC) of 1.56 µg/mL (≈ 3.16 µM). The viability at 72 h, 10 times MIC in data set [3] was 75%. The result in the data set filed under Bos taurus was Active.

As to `Cc1ccccc1-c1cc(-c2cc3c(ccc4ccccc43)oc2=O)nc(Cc2ccc(F)cc2)n1`, the inhibition at 6.25 µg/mL in data set [1] was 73%.

In data set [1], `O=c1oc2ccc3ccccc3c2cc1-c1cc(-c2cccc([N+](=O)[O-])c2)nc(Cc2ccc(F)cc2)n1` returned an inhibition at 6.25 µg/mL of 91%. This compound registered an MIC in data set [2] of 3.12 µg/mL (≈ 6.2 µM). For the same compound, the viability at 72 h, 10 times MIC in data set [3] came to 26%. Besides, the outcome in the data set listed under Bos taurus was Active.

As to `O=c1oc2ccc3ccccc3c2cc1-c1cc(-c2ccccc2Cl)nc(Cc2ccc(F)cc2)n1`, the inhibition at 6.25 µg/mL in data set [1] was 75%.

In data set [1], `O=c1oc2ccc3ccccc3c2cc1-c1cc(-c2cccc(Br)c2)nc(Cc2ccc(F)cc2)n1` displayed an inhibition at 6.25 µg/mL of 93%. The same compound gave a minimum inhibitory concentration (MIC) in data set [2] of 2.81 µg/mL (≈ 5.23 µM). Also, in data set [3], the viability at 72 h, 10 times MIC came out at 64%.

Compound `COc1ccc(-c2cc(-c3cc4c(ccc5ccccc54)oc3=O)nc(Cc3ccc(F)cc3)n2)cc1` displayed an inhibition at 6.25 µg/mL in data set [1] of 100%. Moreover, the lowest concentration to inhibit growth in data set [2] (MIC) was 0.05 µg/mL (≈ 0.102 µM). Further, the viability at 72 h, 10 times MIC in data set [3] was determined as 97%. In addition, the result in the data set listed under Bos taurus was Active.

Consider `Cc1cccc(-c2cc(-c3cc4c(ccc5ccccc54)oc3=O)nc(Cc3ccc(F)cc3)n2)c1`, for which, in data set [1], the inhibition at 6.25 µg/mL was determined as 76%.

In the case of `COc1cccc(-c2cc(-c3cc4c(ccc5ccccc54)oc3=O)nc(Cc3ccc(F)cc3)n2)c1`, the inhibition at 6.25 µg/mL in data set [1] is 100%. Besides, in data set [2], the MIC is 0.19 µg/mL (≈ 0.389 µM). The viability at 72 h, 10 times MIC in data set [3] was 93%.

For the compound `Cc1ccc(-c2cc(-c3cc4c(ccc5ccccc54)oc3=O)nc(Cc3ccc(F)cc3)n2)cc1`, testing at 6.25 µg/mL in data set [1] gave an inhibition of 81%.

Take `O=c1oc2ccc3ccccc3c2cc1-c1cc(-c2ccc([N+](=O)[O-])cc2)nc(Cc2ccc(F)cc2)n1`: in data set [1], at 6.25 µg/mL the inhibition was 95%. This compound also yielded an MIC in data set [2] of 2.81 µg/mL (≈ 5.58 µM). Further, the viability at 72 h, 10 times MIC in data set [3] stood at 39%.

In data set [1], `O=c1oc2ccc3ccccc3c2cc1-c1cc(-c2ccc(Br)cc2)nc(Cc2ccc(F)cc2)n1` gave an inhibition at 6.25 µg/mL of 96%. In data set [2], this compound came in with an MIC of 1.56 µg/mL (≈ 2.9 µM). The viability at 72 h, 10 times MIC in data set [3] is 72%. Further, the result in the data set listed under Bos taurus was Active.

(Values after ChEMBL document CHEMBL3611980, “Design, synthesis of benzocoumarin-pyrimidine hybrids as novel class of antitubercular agents, their DNA cleavage and X-ray studies” (Eur J Med Chem, 2015).)
